# Results published in US12622910B2, “Inhibitors of Bruton's tyrosine kinase and methods of their use” (Janssen Pharmaceutica NV, priority 2021, dated 2026).
# Where two headings read alike, the source gives them in different places.
# What was measured:
# BLK [1] = target: T1, BLK (Homo sapiens, UniProt P51451); assay: ActivX KiNativ native kinase profiling, Ramos cell lysates; assay type: binding; details: activation loop labelling
# T1 construct: purchased Eurofins Scientific
# Protocol: (§1) RESULTS AND DISCUSSION—Selectivity—The compound of Formula (III) was evaluated in three selectivity panels to assess the potential for off-target pharmacology (Table 8). […] The kinase off-target profile of The compound of Formula (III) was assessed in a full human wild-type panel using radiometric kinase activity assays (KinaseProfiler™ and IC50Profiler™; Eurofins Scientific) (Table 9; FIG. 23). The compound of Formula (III) inhibited 4/278 kinases >50% at 1 micromolar, identifying BTK and the three other kinases having analogous Cys residues with the potential for covalent inhibition (BMX, TEC, BLK). […]. The cellular kinase selectivity of The compound of Formula (III) was established in native Ramos B cell kinome assays (KiNativ™; ActivX) confirmed BTK as the primary target with inhibition of BLK and TEC inhibition detected (Table 10).
# TEC [2] = target: T2, TEC (Homo sapiens, UniProt P42680); assay: as above; assay type: binding
# T2 construct: purchased Eurofins Scientific
# T2 sequence (P42680 1-631): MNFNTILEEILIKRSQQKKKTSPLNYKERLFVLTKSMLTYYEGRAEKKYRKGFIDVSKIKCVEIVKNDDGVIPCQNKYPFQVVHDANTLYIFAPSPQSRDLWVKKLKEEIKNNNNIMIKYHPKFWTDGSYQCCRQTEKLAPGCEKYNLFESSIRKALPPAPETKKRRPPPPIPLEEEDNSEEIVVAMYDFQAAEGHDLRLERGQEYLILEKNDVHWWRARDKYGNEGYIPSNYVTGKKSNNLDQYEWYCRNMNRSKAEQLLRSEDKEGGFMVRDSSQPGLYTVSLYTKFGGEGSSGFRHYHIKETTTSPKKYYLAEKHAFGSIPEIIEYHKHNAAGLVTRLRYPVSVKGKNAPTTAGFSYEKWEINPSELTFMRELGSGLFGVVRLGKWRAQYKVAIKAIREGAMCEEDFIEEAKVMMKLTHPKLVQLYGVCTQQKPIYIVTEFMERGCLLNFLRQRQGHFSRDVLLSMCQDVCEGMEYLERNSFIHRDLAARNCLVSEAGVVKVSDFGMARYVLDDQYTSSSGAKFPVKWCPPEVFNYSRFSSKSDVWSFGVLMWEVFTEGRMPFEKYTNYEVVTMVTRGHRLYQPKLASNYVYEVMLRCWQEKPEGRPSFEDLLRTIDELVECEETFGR
# Protocol: as §1
# BLK [3] = target: T1, BLK; assay: Eurofins KinaseProfiler/IC50Profiler radiometric kinase activity assay; assay type: biochemical
# Protocol: as §1
# BMX = target: T3, BMX (Homo sapiens, UniProt P51813); assay: as above; assay type: biochemical
# T3 construct: purchased Eurofins Scientific
# Protocol: as §1
# TEC [4] = target: T2, TEC; assay: as above; assay type: biochemical
# Protocol: as §1
# BTK = BTK (Homo sapiens, UniProt Q06187); assay: as above; assay type: biochemical
# Protocol: as §1
# [5] = system: receptors, enzymes, and ion channels; assay: Panel of diverse proteins (54 test targets); assay type: binding; details: 10 μM
# Protocol: as §1
# [6] = Plasma protein binding, equilibrium dialysis; assay type: in vitro ADME
# Protocol: Additional Data on Preclinical PK Profile—Protein binding of the compound of Formula (III) was studied using an equilibrium dialysis method in plasma from human, cynomolgus monkey, beagle dog, Sprague Dawley rat, CD-1 mouse, and guinea pig at 0.25, 2.5, and 25 μM. […] In human and monkey, the plasma protein binding was concentration dependent. […] Free fraction of the compound of Formula (III) in liver microsomes from various species ranged from 75.1% to 87.9% at 0.25 mg/mL and from 58.9% to 86.5% at 1.0 mg/mL (Table 17). […] In hepatocytes, the compound of Formula (III) turnover followed a similar trend, with T1/2 ranging from 75.3 minutes in monkey to 278.1 minutes in human.
# [7] = Blood-to-plasma concentration ratio; assay type: in vitro ADME; details: mouse, fresh blood
# CYP3A4 (CYP3A) = CYP3A4 (CYP3A) (Homo sapiens, UniProt P08684); assay: Time-dependent inhibition of CYP3A in human liver microsomes; assay type: in vitro ADME; details: probe testosterone
# Protocol: (§2) To assess the potential of the compound of Formula (III) to be a time-dependent inhibitor of CYP3A, human liver microsomes were preincubated for 30 minutes at 37° C. with the compound of Formula (III) at concentrations up to 10 μM, and CYP3A activity was measured using testosterone as a probe substrate. […] The potential of the compound of Formula (III) to induce CYPs at the transcriptional level was assessed using Puracyp™ DPX2 (CYP3A4, PXR) and DRE (CYP1A2, AhR) luciferase-reporter cell lines; rifampicin and omeprazole were used as positive controls for CYP3A and CYP1A induction, respectively. The activation by the compound of Formula (III) was <20% of positive control values for PXR (6.6% and 14.1% at 1 and 10 μM change, respectively) or AhR (0.1% and 0.3% change, respectively). […] Potential involvement of various CYP isoforms in the metabolism of the compound of Formula (III) was investigated by measuring the parent compound remaining after 1-hour incubation with the compound of Formula (III) (1 μM) with recombinant CYPs (rCYPs) at 100 pmol P450/mL in the presence of 1 mM NADPH at 37° C. The only isozyme that produced notable the compound of Formula (III) turnover with <1% parent remaining after 1-hour incubation was CYP3A4 (FIG. 24). […]
# CYP3A4 = target: T4, CYP3A4 (Homo sapiens, UniProt P08684); assay: Metabolism by recombinant CYPs; assay type: in vitro ADME; details: 1 μM, 100 pmol P450/mL, 1 mM NADPH
# T4 construct: with specific CYP probe substrates in human liver microsomes; from tissue; host or cells: human liver microsomes
# Protocol: as §2
# [8] = 10-point concentration response, read-out: IC50 (IC50 Profiler)
# [9] = CD-1, mouse, read-out: % Free in plasma
# [10] = beagle, dog, read-out: % Free in plasma
# [11] = cynomolgus monkey, read-out: % Free in plasma
# T1 sequence (P51451 whole entry): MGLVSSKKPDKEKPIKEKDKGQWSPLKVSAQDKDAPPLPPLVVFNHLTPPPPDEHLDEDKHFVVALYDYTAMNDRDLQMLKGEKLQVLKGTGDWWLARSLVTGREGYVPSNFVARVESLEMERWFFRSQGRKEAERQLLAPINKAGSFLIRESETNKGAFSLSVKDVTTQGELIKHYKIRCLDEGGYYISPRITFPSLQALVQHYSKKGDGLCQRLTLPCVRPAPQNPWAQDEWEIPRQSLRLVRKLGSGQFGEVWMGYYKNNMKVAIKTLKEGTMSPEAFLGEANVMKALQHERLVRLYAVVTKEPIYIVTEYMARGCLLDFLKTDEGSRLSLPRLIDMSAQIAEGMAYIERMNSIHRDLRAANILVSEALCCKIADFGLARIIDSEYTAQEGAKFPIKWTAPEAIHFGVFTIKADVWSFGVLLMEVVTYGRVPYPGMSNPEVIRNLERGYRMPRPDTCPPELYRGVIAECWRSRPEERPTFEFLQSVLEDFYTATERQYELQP
# Sequence of BTK (Q06187 whole entry): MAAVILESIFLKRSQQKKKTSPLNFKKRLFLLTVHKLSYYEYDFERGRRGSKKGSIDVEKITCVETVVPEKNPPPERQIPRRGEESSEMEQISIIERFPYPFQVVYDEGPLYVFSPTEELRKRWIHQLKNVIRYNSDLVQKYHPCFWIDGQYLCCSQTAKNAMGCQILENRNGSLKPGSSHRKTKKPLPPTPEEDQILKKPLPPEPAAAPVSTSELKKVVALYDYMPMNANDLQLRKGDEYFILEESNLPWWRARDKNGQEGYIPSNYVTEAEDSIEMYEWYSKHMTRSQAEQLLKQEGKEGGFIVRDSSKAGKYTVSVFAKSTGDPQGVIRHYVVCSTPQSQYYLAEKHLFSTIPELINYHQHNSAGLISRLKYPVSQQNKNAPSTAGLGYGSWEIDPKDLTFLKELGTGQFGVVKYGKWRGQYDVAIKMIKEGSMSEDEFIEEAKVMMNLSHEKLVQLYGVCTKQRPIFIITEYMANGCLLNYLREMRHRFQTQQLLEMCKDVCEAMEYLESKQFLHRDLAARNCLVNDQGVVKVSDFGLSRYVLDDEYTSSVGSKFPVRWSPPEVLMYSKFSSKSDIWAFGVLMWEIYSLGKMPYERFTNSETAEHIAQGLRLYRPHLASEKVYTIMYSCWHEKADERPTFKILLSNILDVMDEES
# Sequence of CYP3A4 (CYP3A) (P08684 2-503): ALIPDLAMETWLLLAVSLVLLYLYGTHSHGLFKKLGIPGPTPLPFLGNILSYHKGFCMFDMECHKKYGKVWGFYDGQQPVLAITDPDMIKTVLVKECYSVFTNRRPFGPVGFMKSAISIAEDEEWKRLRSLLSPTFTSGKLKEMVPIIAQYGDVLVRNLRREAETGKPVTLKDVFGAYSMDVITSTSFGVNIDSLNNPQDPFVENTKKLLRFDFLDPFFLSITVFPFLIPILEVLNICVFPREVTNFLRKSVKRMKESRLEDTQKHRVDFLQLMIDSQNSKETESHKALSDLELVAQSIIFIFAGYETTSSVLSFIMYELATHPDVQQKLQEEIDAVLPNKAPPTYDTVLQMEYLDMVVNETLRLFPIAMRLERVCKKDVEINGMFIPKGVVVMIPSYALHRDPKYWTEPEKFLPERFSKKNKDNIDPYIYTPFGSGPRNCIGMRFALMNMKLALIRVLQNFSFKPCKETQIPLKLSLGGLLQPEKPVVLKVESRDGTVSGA
# T3 sequence (P51813 whole entry): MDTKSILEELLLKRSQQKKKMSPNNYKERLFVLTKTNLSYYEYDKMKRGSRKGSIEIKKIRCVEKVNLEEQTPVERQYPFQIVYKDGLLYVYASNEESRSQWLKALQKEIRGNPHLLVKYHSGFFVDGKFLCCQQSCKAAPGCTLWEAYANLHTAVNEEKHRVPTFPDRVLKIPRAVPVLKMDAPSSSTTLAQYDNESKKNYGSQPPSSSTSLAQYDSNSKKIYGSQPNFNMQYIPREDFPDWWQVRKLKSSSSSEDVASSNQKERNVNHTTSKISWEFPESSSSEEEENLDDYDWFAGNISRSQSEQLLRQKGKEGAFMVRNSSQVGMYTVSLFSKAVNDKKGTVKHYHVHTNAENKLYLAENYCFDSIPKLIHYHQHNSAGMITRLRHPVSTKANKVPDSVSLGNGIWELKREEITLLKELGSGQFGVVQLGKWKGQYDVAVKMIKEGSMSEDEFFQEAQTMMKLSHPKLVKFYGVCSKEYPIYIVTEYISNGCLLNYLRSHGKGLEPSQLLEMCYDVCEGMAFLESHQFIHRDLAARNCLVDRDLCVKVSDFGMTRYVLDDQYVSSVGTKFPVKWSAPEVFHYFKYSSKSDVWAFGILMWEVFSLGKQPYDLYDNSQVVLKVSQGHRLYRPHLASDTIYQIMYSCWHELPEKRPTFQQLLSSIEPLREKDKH
# T4 sequence (P08684 whole entry): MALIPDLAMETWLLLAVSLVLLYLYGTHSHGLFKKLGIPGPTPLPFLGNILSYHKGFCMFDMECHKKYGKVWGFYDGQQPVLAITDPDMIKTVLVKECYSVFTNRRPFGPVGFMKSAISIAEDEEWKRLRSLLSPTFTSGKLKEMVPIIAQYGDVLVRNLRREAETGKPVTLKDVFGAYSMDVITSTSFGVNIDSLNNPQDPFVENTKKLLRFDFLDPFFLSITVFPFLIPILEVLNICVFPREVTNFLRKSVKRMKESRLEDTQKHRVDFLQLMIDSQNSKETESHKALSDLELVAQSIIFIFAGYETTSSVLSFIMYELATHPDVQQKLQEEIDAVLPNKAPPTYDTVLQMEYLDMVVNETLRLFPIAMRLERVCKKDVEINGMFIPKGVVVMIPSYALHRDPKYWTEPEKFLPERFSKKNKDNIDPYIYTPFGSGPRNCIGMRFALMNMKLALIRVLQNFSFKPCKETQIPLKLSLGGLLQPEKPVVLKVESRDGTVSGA
compound,measurement,setting,value
"C=CC(=O)N[C@H]1CCC[C@H]1NC(=O)c1sc2nccc3c2c1NC(=O)N3c1cnc(CC(C)C)cc1C (atropisomer, axis not shown) [compound of Formula (III), N-((1R,2S)-2-Acrylamidocyclopentyl)-5-(S)-(6-isobutyl-4-methylpyridin-3-yl)-4-oxo-4,5-dihydro-3H-1-thia-3,5,8-triazaacenaphthylene-2-carboxamide]",inhibition at 1 µM,BLK [1],61.9%
same,inhibition at 1 µM,TEC [2],77.6%
same,inhibition at 1 µM,BLK [3]; 1 μM,54%
same,IC50,BLK [3]; [8],3130 nM
same,inhibition at 1 µM,BMX; 1 μM,92%
same,IC50,BMX; [8],172 nM
same,inhibition at 1 µM,TEC [4]; 1 μM,88%
same,IC50,TEC [4]; [8],303 nM
same,inhibition at 1 µM,BTK; 1 μM,98%
same,IC50,BTK; [8],558 nM
same,binding in off-target panel,[5],did not bind >50% at 10 μM for any of the 54 test targets
same,fraction unbound at 0.25 μM,[6]; [9],0.0192
same,fraction unbound at 2.5 μM,"[6]; CD-1, mouse, 2.5 μM, read-out: % Free in plasma",0.024
same,fraction unbound at 25 μM,[6]; [9],0.0335
same,fraction unbound at 0.25 μM,[6]; [10],0.0688
same,fraction unbound at 25 μM,[6]; [10],0.0685
same,fraction unbound at 0.25 μM,[6]; [11],< 0.004
same,fraction unbound at 25 μM,[6]; [11],0.0532
same,fraction unbound at 1 μM,"[6]; female, Wistar, rat, read-out: free fraction in plasma",0.0754
same,blood plasma ratio at 1 μM,[7],0.84
same,IC50,CYP3A4 (CYP3A); with 30 min preincubation,9810 nM
same,IC50,CYP3A4 (CYP3A); without preincubation,> 10000 nM
same,parent remaining after 1-hour incubation,CYP3A4,< 1%
